Results as given in patent publication US20260209260A1, “VECTORIZED NHC IRIDIUM(III) COMPLEXES AND USE THEREOF IN PHOTODYNAMIC THERAPY AND/OR DIAGNOSTIC” (CENTRE NATIONAL DE LA RECHERCHE SCIENTIFIQUE, priority 2022, published 2026).
Several values for one entry are separate records, joined by “and”; a condition that tells them apart may be missing. Equal entries are not always repeated. Where two headings read alike, the source gives them in different places.

Key:
[1] = tested on: non-tumor cells (NIH-3T3 and MC3T3); assay: Cell viability assay (MTT), summary over the non-tumor models; format: cell-based, Murine; details: for GI50: blue light 458 nm, read-out: GI50 mean over non-tumor models, irradiated; for mean PI value in NIH-3T3 and MC3T3 non-tumoral cells: dark vs blue light 458 nm
Description: (§1) Cells were grown in humidified incubators at 37° C. in 5% CO2. Murine MC3T3 osteoblast and NIH-3T3 fibroblast cells-used as non-tumor cell models-were cultured in a-MEM medium and DMEM medium supplemented with 10% fetal bovine serum (FBS) and 1% Penicillin/Streptomycin (P/S) antibiotics, respectively. Human T24 bladder, MGHU3 bladder, Scaber bladder, A549 lung, MCF7 breast, MiaPaCa2 pancreas cancer cells were cultured in DMEM medium supplemented with 10% FBS and 1% P/S antibiotics. […] Human Hela cervix and HepG2 liver cancer cells were cultured EMEM medium supplemented with 10% FBS and 1% P/S antibiotics.
(§2) MTT reagent (3-(4,5-dimethylthiazol-2-yl)-2,5-diphenyltetrazolium bromide) was used to determine cell death as originally described by Mosmann. Briefly, cells were seeded from 5,000 to 10,000 cells/well in 24-well plates (1 mL) depending on the cell type and allowed to attach overnight. The complexes were prepared in DMSO. The concentration of the complexes was calculated based on the elemental composition of the complexes determined by the elemental analyses. All cell viability experiments were carried out with a fixed concentration of 0.1% (v/v) DMSO. After 72 h of treatment, cells were incubated at 37° C. and 5% CO2 with 25 μL of MTT solution (5 mg/ml; Sigma-Aldrich) in 24-well plates for 3 to 4 h. After solubilization with 500 μL of DMSO, formazan was quantified spectrophotometrically with a microplate reader at 570 nm absorbance (ClarioSTAR, BMG LabTech). […] All the results were calculated from data obtained in at least three independent experiments performed in triplicate.
(§3) Two sets of experiments were conducted in parallel for each complex to be studied:
(§4) 1. The cells were incubated with the different complexes (in the dark) for 72 h.
(§5) 2. The cells were incubated for 8 h with the different complexes (in the dark), then irradiated for 10 min, followed by an incubation in the dark up to 72 h.

[2] = UV/Vis absorption spectra; format: physicochemical; details: room temperature, air-saturated CH2Cl2 or CH2Cl2/MeOH (1:1), 50 μM; ε in brackets, sh = shoulder
Description: UV/Vis absorption spectra were recorded at RT on solutions contained in quartz cuvettes (optical pathlength 1 cm, Hellma®) with a PerkinElmer® UV/VIS/NIR spectrophotometer Lambda 950 and a PerkinElmer® detector UV/VIS/NIR Accessory 2D Detector Module.

[3] = tested on: MC3T3 osteoblast cells (non-tumor); assay: Cell viability assay (MTT), dark and blue light; format: cell-based, Murine; details: for Photosensitizing index (PI): MC3T3, dark vs blue light; for GI50: read-out: GI50
Procedure, shortened: (§6)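 72 h continuous exposure in the dark, or 8 h dark incubation then 10 min irradiation and dark incubation up to 72 h; 0.1% (v/v) DMSO throughout. Viability read by MTT, formazan absorbance at 570 nm. At least three independent experiments in triplicate.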

[4] = tested on: NIH-3T3 fibroblast cells (non-tumor); assay: Cell viability assay (MTT), dark and blue light; format: cell-based, Murine; details: for GI50: read-out: GI50; for Photosensitizing index (PI): NIH-3T3, dark vs blue light
Procedure, shortened: as §6

[5] = Luminescence emission spectra and quantum yield; format: physicochemical; details: room temperature; reference POPOP in hexane or rhodamine B in ethanol
Procedure, shortened: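 Spectrofluorometric fluorescence/phosphorescence emission spectra of the iridium(III) complexes recorded in CH2Cl2 at room temperature. Quantum yields by the Demas–Crosby relative method on solutions at RT, from integrated emission band areas versus a reference standard of known yield, corrected for solvent refractive index.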

[6] = Emission lifetime measurement; format: physicochemical
Procedure, shortened: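 Emission lifetimes measured by time-correlated single-photon counting (0.5 ns time resolution), excitation from a D2 lamp and a 405 nm pulsed diode laser. Estimated error 5% on lifetime.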

[7] = tested on: cancer cells (all tumor cell lines tested); assay: Cell viability assay (MTT), summary over the cancer cell lines tested; format: cell-based, Human; details: for GI50: blue light 458 nm, read-out: GI50 mean over cancer cells, irradiated; for PI values, mean over cancer cells: dark vs blue light 458 nm; for increase in cell toxicity in cancer cells compared to non-tumor models: irradiated conditions
Description: as §1, §2, §3, §4, §5

[8] = Lipophilicity: octanol-water partition coefficient, shake-flask method
Procedure, shortened: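 Octanol and water mutually pre-saturated for 24 h; compound ([…] stock in aqueous phase) partitioned against equal volume n-octanol, mixed 15 min, phases separated by centrifugation.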

T24 bladder cancer cells = assay: Cell viability assay (MTT), dark and blue light; format: cell-based, Human; details: for GI50: read-out: GI50; for Photosensitizing index (PI): T24, dark vs blue light
Procedure, shortened: as §6

[9] = n-octanol/water, shake-flask, mean of at least three determinations

Compound	GI50 [1] [µM]	mean PI value in NIH-3T3 and MC3T3 non-tumoral cells [1] [fold]	λmax (nm) ε (M^−1 · cm^−1) [2]	Photosensitizing index (PI) [3]	GI50 ([3]; MC3T3, dark)	GI50 ([4]; NIH-3T3, blue light) [µM]	Photosensitizing index (PI) [4]	ΦP emission phosphorescence quantum yield [5] [%]	τ1 emission lifetime [6] [ns]	selectivity for cancer cells over non-tumor cells, in words [7]	GI50 [7] [µM]	PI values, mean over cancer cells [7] [fold]	increase in cell toxicity in cancer cells compared to non-tumor models [7] [fold]	Log P [8]	SI (vs MC3T3) (T24 bladder cancer cells; T24, blue light)	SI (vs NIH-3T3) (T24 bladder cancer cells; T24, blue light)	GI50 (T24 bladder cancer cells; T24, blue light) [µM]	SI (vs NIH-3T3) (T24 bladder cancer cells; T24, dark)	Photosensitizing index (PI) (T24 bladder cancer cells)	GI50 ([3]; MC3T3, blue light) [µM]	also measured
F[P-](F)(F)(F)(F)F.O=C(NCCCn1cc[n+]2[c]1[Ir-3]13([c]4ccccc4-c4c5ccccc5cc[n+]41)([c]1ccccc1-c1c4ccccc4cc[n+]13)[n+]1ccccc1-2)[c-]1cccc1.[Fe+2].c1cc[cH-]c1 [IV-h]	4.45	2.8	334 (sh) (19440), 351 (sh) (18355), 380 (12745), 435 (7870) nm (M^−1 · cm^−1)	3.8	17.1 µM	4.4	3.0	0.07	178	most selective effects under irradiated conditions	0.155	20.1	29	0.81 ± 0.07	45.0	44.0	0.1	10.2	13.0	–	GI50 (T24 bladder cancer cells; T24, dark): 1.3 µM
F[P-](F)(F)(F)(F)F.O=C(NCCCn1cc[n+]2[c]1[Ir-3]13([c]4cccc5ccc6ccc[n+]1c6c45)([c]1cccc4ccc5ccc[n+]3c5c14)[n+]1ccccc1-2)[c-]1cccc1.[Fe+2].c1cc[cH-]c1 [IV-i]	–	2.8	318 (25600), 413 (7410) nm (M^−1 · cm^−1)	1.0	10 µM	17.8	2.3	0.02	205	–	–	1.6	–	–	27.2	50.4	0.35	23.2	5.1	10	Log P [8, 9]: 0.74 ± 0.02
F[P-](F)(F)(F)(F)F.O=C(NCCCn1cc[n+]2[c]1[Ir-3]13([c]4c(sc5ccccc45)-c4cccc[n+]41)([c]1c(sc4ccccc14)-c1cccc[n+]13)[n+]1ccccc1-2)[c-]1cccc1.[Fe+2].c1cc[cH-]c1 [IV-j]	8.4	2.8	322 (15400), 342 (sh) (14040), 434 (6150) nm (M^−1 · cm^−1)	4.2	–	14	4.5	0.01	196	most selective effects under irradiated conditions	0.228	39.8	39	1.07 ± 0.07	–	108.5	0.13	22.7	21.5	3.9	GI50 ([4]; NIH-3T3, dark): 62.8 µM; GI50 (T24 bladder cancer cells; T24, dark): 2.8 µM
F[P-](F)(F)(F)(F)F.O=C(NCCCn1cc[n+]2[c]1[Ir-3]13([c]4ccccc4-c4sc5ccccc5[n+]41)([c]1ccccc1-c1sc4ccccc4[n+]13)[n+]1ccccc1-2)[c-]1cccc1.[Fe+2].c1cc[cH-]c1 [IV-k]	–	2.8	321 (24910), 371 (sh) (7200), 407 (5940) nm (M^−1 · cm^−1)	2.3	10.2 µM and 11.6 µM	11.6	1.6	0.08	212	–	–	1.8	–	–	27.0	–	–	20.9	4.7	5.1	GI50 ([4]; NIH-3T3, dark): 18.7 µM; Log P [8, 9]: 0.74 ± 0.05; SI (vs MC3T3) (T24 bladder cancer cells; T24, dark): 11.4
